{
  "source": "patent US20180207228A1",
  "about": "“PEPTIDE COMBINATIONS AND USES THEREOF FOR TREATING GRASS ALLERGY” (ALK-Abelló A/S, priority 2015, published 2018)",
  "format_in_all_cases": "cell-based, human",
  "key": {"[1]": {"system": "release of IL-5 upon T cell activation", "experiment": "Fluorospot assay, IL-5 release (DK1-TCL01, US1-TCL01)", "conditions": "head prints TCL-02 DK1; text: 25 TCL-01 DK1 lines", "in_short": "(§1)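 A peptide counted as a hit at ≥20 SFC/10^6 cells, stimulation index ≥2 over medium, and p and Poisson ≤0.05. Cells came from TCL01 lines, raised from allergic donors' CD8-depleted PBMCs over 14 days of natural-allergen stimulation with IL-2. They were exposed to 2 μg/ml peptide or peptide mix for 20 h at 37° C.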"}, "[2]": {"system": "release of IFN-γ upon T cell activation", "experiment": "Fluorospot assay, IFN-γ release (DK1-TCL01, US1-TCL01)", "conditions": "head prints TCL-02 DK1; 17 TCL-01 DK1 lines", "in_short": "as §1"}, "[3]": {"system": "allergen specific T cells", "experiment": "T cell proliferation assay (72 h) on donor derived T cell lines (TCL02/TCL03)", "conditions": "for Proliferation % donor coverage (TCL-02 DK1): T cell lines TCL-02 DK1, 30 donors, hit criteria SI>=2, CPM>=1000; for Proliferation strength (TCL-02 DK1): T cell lines TCL-02 DK1, strength of response (average relative magnitude)", "in_short": "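Overlapping 20-mer and selected 15-mer grass allergen peptides were screened for proliferation using TCL02 (day 24) or TCL03 (day 34) lines. Lines came from grass-allergic donors' CD8-depleted PBMCs, primed with natural allergen mix and expanded with irradiated autologous or allogeneic APCs, PHA-P 0.5 μg/ml and rIL-2.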"}},
  "note": "Where no end group is shown, it is not given here.",
  "data": [
    {"substance": "RIIAGTLEVHAVKPAAEEVK-OH [compound 80]", "values": [
      {"measurement": "IL-5-Fluorospotr % donor coverage (TCL-02 DK1)", "setting": "[1]", "result": 0.00, "unit": "%"},
      {"measurement": "IFN-gamma % donor coverage (TCL-02 DK1)", "setting": "[2]", "result": 0.00, "unit": "%"},
      {"measurement": "Proliferation % donor coverage (TCL-02 DK1)", "setting": "[3]", "result": 30.00, "unit": "%"},
      {"measurement": "Proliferation strength (TCL-02 DK1)", "setting": "[3]", "result": 4.40}
    ]},
    {"substance": "ITATYGDKWLDAKSTWYGKP-OH [compound 16]", "values": [
      {"measurement": "IL-5-Fluorospotr % donor coverage (TCL-02 DK1)", "setting": "[1]", "result": 0.00, "unit": "%"},
      {"measurement": "IFN-gamma % donor coverage (TCL-02 DK1)", "setting": "[2]", "result": 4.00, "unit": "%"},
      {"measurement": "Proliferation % donor coverage (TCL-02 DK1)", "setting": "[3]", "result": 10.00, "unit": "%"},
      {"measurement": "Proliferation strength (TCL-02 DK1)", "setting": "[3]", "result": 0.70}
    ]},
    {"substance": "AAESSSKAALTSKLDAAYKL-OH [compound 78]", "values": [
      {"measurement": "IL-5-Fluorospotr % donor coverage (TCL-02 DK1)", "setting": "[1]", "result": 0.00, "unit": "%"},
      {"measurement": "IFN-gamma % donor coverage (TCL-02 DK1)", "setting": "[2]", "result": 0.00, "unit": "%"},
      {"measurement": "Proliferation % donor coverage (TCL-02 DK1)", "setting": "[3]", "result": 16.67, "unit": "%"},
      {"measurement": "Proliferation strength (TCL-02 DK1)", "setting": "[3]", "result": 3.00}
    ]},
    {"substance": "TSAVGAATGAATAATGGYKV-OH [compound 88]", "values": [
      {"measurement": "IL-5-Fluorospotr % donor coverage (TCL-02 DK1)", "setting": "[1]", "result": 0.00, "unit": "%"},
      {"measurement": "IFN-gamma % donor coverage (TCL-02 DK1)", "setting": "[2]", "result": 0.00, "unit": "%"},
      {"measurement": "Proliferation % donor coverage (TCL-02 DK1)", "setting": "[3]", "result": 0.00, "unit": "%"},
      {"measurement": "Proliferation strength (TCL-02 DK1)", "setting": "[3]", "result": 0.00}
    ]},
    {"substance": "AGELELQFRRVKSKYPEGTK-OH [compound 7]", "values": [
      {"measurement": "IL-5-Fluorospotr % donor coverage (TCL-02 DK1)", "setting": "[1]", "result": 28.00, "unit": "%"},
      {"measurement": "IFN-gamma % donor coverage (TCL-02 DK1)", "setting": "[2]", "result": 4.00, "unit": "%"},
      {"measurement": "Proliferation % donor coverage (TCL-02 DK1)", "setting": "[3]", "result": 40.00, "unit": "%"},
      {"measurement": "Proliferation strength (TCL-02 DK1)", "setting": "[3]", "result": 8.10}
    ]},
    {"substance": "SMGDDHFWAVRGGGGESFGI-OH [compound 49]", "values": [
      {"measurement": "IL-5-Fluorospotr % donor coverage (TCL-02 DK1)", "setting": "[1]", "result": 20.00, "unit": "%"},
      {"measurement": "IFN-gamma % donor coverage (TCL-02 DK1)", "setting": "[2]", "result": 12.00, "unit": "%"},
      {"measurement": "Proliferation % donor coverage (TCL-02 DK1)", "setting": "[3]", "result": 40.00, "unit": "%"},
      {"measurement": "Proliferation strength (TCL-02 DK1)", "setting": "[3]", "result": 5.60}
    ]},
    {"substance": "RFLTEKGMKNVFDDVVPEKY-OH [compound 34]", "values": [
      {"measurement": "IL-5-Fluorospotr % donor coverage (TCL-02 DK1)", "setting": "[1]", "result": 4.00, "unit": "%"},
      {"measurement": "IFN-gamma % donor coverage (TCL-02 DK1)", "setting": "[2]", "result": 0.00, "unit": "%"},
      {"measurement": "Proliferation % donor coverage (TCL-02 DK1)", "setting": "[3]", "result": 6.67, "unit": "%"},
      {"measurement": "Proliferation strength (TCL-02 DK1)", "setting": "[3]", "result": 0.60}
    ]},
    {"substance": "KPAAAATATATSAVGAATGA-OH [compound 87]", "values": [
      {"measurement": "IL-5-Fluorospotr % donor coverage (TCL-02 DK1)", "setting": "[1]", "result": 0.00, "unit": "%"},
      {"measurement": "IFN-gamma % donor coverage (TCL-02 DK1)", "setting": "[2]", "result": 0.00, "unit": "%"},
      {"measurement": "Proliferation % donor coverage (TCL-02 DK1)", "setting": "[3]", "result": 10.00, "unit": "%"},
      {"measurement": "Proliferation strength (TCL-02 DK1)", "setting": "[3]", "result": 0.70}
    ]},
    {"substance": "GSDPKKLVLNIKYTRPGDSL-OH [compound 36]", "values": [
      {"measurement": "IL-5-Fluorospotr % donor coverage (TCL-02 DK1)", "setting": "[1]", "result": 24.00, "unit": "%"},
      {"measurement": "IFN-gamma % donor coverage (TCL-02 DK1)", "setting": "[2]", "result": 8.00, "unit": "%"},
      {"measurement": "Proliferation % donor coverage (TCL-02 DK1)", "setting": "[3]", "result": 53.33, "unit": "%"},
      {"measurement": "Proliferation strength (TCL-02 DK1)", "setting": "[3]", "result": 11.90}
    ]},
    {"substance": "EAKYDAYVATLSEALRIIAG-OH [compound 66]", "values": [
      {"measurement": "IL-5-Fluorospotr % donor coverage (TCL-02 DK1)", "setting": "[1]", "result": 20.83, "unit": "%"},
      {"measurement": "IFN-gamma % donor coverage (TCL-02 DK1)", "setting": "[2]", "result": 0.00, "unit": "%"},
      {"measurement": "Proliferation % donor coverage (TCL-02 DK1)", "setting": "[3]", "result": 46.67, "unit": "%"},
      {"measurement": "Proliferation strength (TCL-02 DK1)", "setting": "[3]", "result": 11.20}
    ]},
    {"substance": "TDDNEEPIAPYHFDLSGHAF-OH [compound 4]", "values": [
      {"measurement": "IL-5-Fluorospotr % donor coverage (TCL-02 DK1)", "setting": "[1]", "result": 28.00, "unit": "%"},
      {"measurement": "IFN-gamma % donor coverage (TCL-02 DK1)", "setting": "[2]", "result": 4.00, "unit": "%"},
      {"measurement": "Proliferation % donor coverage (TCL-02 DK1)", "setting": "[3]", "result": 40.00, "unit": "%"},
      {"measurement": "Proliferation strength (TCL-02 DK1)", "setting": "[3]", "result": 6.40}
    ]},
    {"substance": "AGYTPAAPAGAEPAGKATTE-OH [compound 61]", "values": [
      {"measurement": "IL-5-Fluorospotr % donor coverage (TCL-02 DK1)", "setting": "[1]", "result": 16.00, "unit": "%"},
      {"measurement": "IFN-gamma % donor coverage (TCL-02 DK1)", "setting": "[2]", "result": 0.00, "unit": "%"},
      {"measurement": "Proliferation % donor coverage (TCL-02 DK1)", "setting": "[3]", "result": 26.67, "unit": "%"},
      {"measurement": "Proliferation strength (TCL-02 DK1)", "setting": "[3]", "result": 3.40}
    ]},
    {"substance": "AAGVPPADKYRTFVATFGAA-OH [compound 75]", "values": [
      {"measurement": "IL-5-Fluorospotr % donor coverage (TCL-02 DK1)", "setting": "[1]", "result": 0.00, "unit": "%"},
      {"measurement": "IFN-gamma % donor coverage (TCL-02 DK1)", "setting": "[2]", "result": 0.00, "unit": "%"},
      {"measurement": "Proliferation % donor coverage (TCL-02 DK1)", "setting": "[3]", "result": 10.00, "unit": "%"},
      {"measurement": "Proliferation strength (TCL-02 DK1)", "setting": "[3]", "result": 1.10}
    ]}
  ]
}
